# Reference: patent publication US10842152B2, “Isothiazolo-based bicycles, processes for their preparation and their use as herbicides and/or plant growth regulators” (Bayer CropScience Aktiengesellschaft, priority 2017, dated 2020)
# Columns and labels:
# MATIN [1] = experiment: Herbicidal effect pre-emergence; format: in vivo, Matricaria inodora; conditions: 320 g/ha, visual grading after ca. 3 weeks vs untreated controls
# Excerpt: (§1) Seeds of mono- and dicotyledonous weed plants and crop plants are sown in wood-fiber pots in sandy loam and covered with soil. The compounds according to the invention, formulated in the form of wettable powders (WP) or as emulsifiable concentrates (EC), are then applied to the surface of the covering soil as aqueous suspension or emulsion, with the addition of 0.5% of an additive, at an application rate of 600 l of water/ha (converted).
# (§2) Following treatment, the pots are placed in a greenhouse and kept under optimum growth conditions for the test plants. The visual grading of the damage to the test plants is carried out after ca. 3 weeks in comparison to untreated controls (herbicidal effect in percent (%): 100% effect=plants have died off, 0% effect=as control plants).
# Viola tricolor [2] = experiment: Herbicidal effect pre-emergence; format: in vivo; conditions: 320 g/ha, visual grading after ca. 3 weeks vs untreated controls
# Excerpt: (§3) Herbicidal activities of the compounds of the formulae (G1) or (G2) according to the invention were investigated against the following harmful plants: • ALOMY=Alopecurus myosuroides • ECHCG=Echinochloa crus-galli • SETVI=Setaria viridis • ABUTH=Abutilon theophrasti • AMARE=Amaranthus retroflexus • PHBPU=Pharbitis purpurea • POLCO=Polygonum convolvulus (=Fallopia convolvulus) • STEME=Stellaria media • VIOTR=Viola tricolor
# as §1, §2
# Amaranthus retroflexus [3] = experiment: Herbicidal effect pre-emergence; format: in vivo; conditions: 320 g/ha, visual grading after ca. 3 weeks vs untreated controls
# Excerpt: as §3, §1, §2
# Setaria viridis [4] = experiment: Herbicidal effect pre-emergence; format: in vivo; conditions: 320 g/ha, visual grading after ca. 3 weeks vs untreated controls
# Excerpt: as §3, §1, §2
# Stellaria media [5] = experiment: Herbicidal effect pre-emergence; format: in vivo; conditions: 320 g/ha, visual grading after ca. 3 weeks vs untreated controls
# Excerpt: as §3, §1, §2
# Alopecurus myosuroides = experiment: Herbicidal effect pre-emergence; format: in vivo; conditions: 320 g/ha, visual grading after ca. 3 weeks vs untreated controls
# Excerpt: as §3, §1, §2
# Viola tricolor [6] = experiment: Herbicidal effect post-emergence; format: in vivo; conditions: 320 g/ha
# Excerpt: as §3
# (§4) Seeds of mono- and dicotyledonous weed plants and crop plants are sown in wood-fiber pots in sandy loam, covered with soil and grown in a greenhouse under controlled growth conditions. 2 to 3 weeks after sowing, the test plants are sprayed in the single-leaf stage. The compounds according to the invention, formulated in form of wettable powders (WP) or as emulsifiable concentrates (EC), are then sprayed onto the green plant parts as aqueous suspension or emulsion, with the addition of 0.5% of an additive, at an application rate of 600 l of water/ha (converted). After the test plants had been in the greenhouse for ca. 3 weeks under optimum growth conditions, the effect of the preparations is assessed visually in comparison with untreated controls (herbicidal effect in percent (%): 100% effect=plants have died off, 0% effect=as control plants).
# Amaranthus retroflexus [7] = experiment: Herbicidal effect post-emergence; format: in vivo; conditions: 320 g/ha
# Excerpt: as §3, §4
# Setaria viridis [8] = experiment: Herbicidal effect post-emergence; format: in vivo; conditions: 320 g/ha
# Excerpt: as §3, §4
# Abutilon theophrasti = experiment: Herbicidal effect post-emergence; format: in vivo; conditions: 320 g/ha, visual grading after ca. 3 weeks (Table 8)
# Excerpt: as §3, §4
# Meloidogyne incognita = Meloidogyne incognita test; format: in vivo; conditions: application rate 20 ppm, after 14 days, salad seedlings
# Protocol: Solvent: 125.0 parts by weight of acetone
# To produce a suitable preparation of active compound, 1 part by weight of active compound is mixed with the stated amount of solvent, and the concentrate is diluted with water to the desired concentration.
# Vessels are filled with sand, a solution of the active ingredient, a suspension containing eggs and larvae of the southern root-knot nematode (Meloidogyne incognita) and salad seeds. The salad seeds germinate and the seedlings grow. Galls develop in the roots.
# After 14 days the nematicidal activity is determined on the basis of the percentage of gall formation. 100% means no galls were found and 0% means the number of galls found on the roots of the treated plants was equal to that in untreated control plants.
# MATIN [9] = experiment: Herbicidal effect post-emergence; format: in vivo, Matricaria inodora; conditions: 320 g/ha, visual grading after ca. 3 weeks (Table 7)
# Excerpt: as §4
# [10] = test system: Polygonum convolvulus (=Fallopia convolvulus); experiment: Herbicidal effect post-emergence; format: in vivo; conditions: 320 g/ha, visual grading after ca. 3 weeks (Table 7)
# Excerpt: as §3, §4
# Pharbitis purpurea = experiment: Herbicidal effect post-emergence; format: in vivo; conditions: 320 g/ha, visual grading after ca. 3 weeks (Table 7)
# Excerpt: as §3, §4
# Stellaria media [11] = experiment: Herbicidal effect post-emergence; format: in vivo; conditions: 320 g/ha, visual grading after ca. 3 weeks (Table 7)
# Excerpt: as §3, §4
# Nezara viridula = Nezara viridula spray test; format: in vivo; conditions: application rate 500 g/ha, after 4 days, barley plants
# Protocol: Solvent: 78.0 parts by weight of acetone • • 1.5 parts by weight of dimethylformamide
# Emulsifier: alkylarylpolyglycol ether
# To produce a suitable preparation of active compound, 1 part by weight of active compound is mixed with the stated amount of solvent, and the concentrate is diluted with water, containing an emulsifier concentration of 1000 ppm, to the desired concentration. Further test concentrations are prepared by dilution with emulsifier containing water.
# Barley plants (Hordeum vulgare) infested with larvae of the southern green stink bug (Nezara viridula) are sprayed with a test solution containing the desired concentration of the active ingredient.
# After 4 days mortality in % is determined. 100% means all the stink bugs have been killed; 0% means none of the stink bugs have been killed.
# [12] = visual grading after ca. 3 weeks (Table 8)
# [13] = visual grading after ca. 3 weeks (Table 9)
# [14] = visual grading after ca. 3 weeks (Table 7)
Compound,herbicidal effect MATIN (MATIN [1]),herbicidal effect VIOTR (Viola tricolor [2]),herbicidal effect AMARE (Amaranthus retroflexus [3]),herbicidal effect SETVI (Setaria viridis [4]),herbicidal effect STEME (Stellaria media [5]),herbicidal effect ALOMY (Alopecurus myosuroides),herbicidal effect MATIN (MATIN [9]),herbicidal effect VIOTR (Viola tricolor [6]; [14]),herbicidal effect AMARE (Amaranthus retroflexus [7]; [14]),herbicidal effect SETVI (Setaria viridis [8]; [14]),herbicidal effect POLCO [10],herbicidal effect PHBPU (Pharbitis purpurea),herbicidal effect STEME (Stellaria media [11]),further results
CCC(=O)Nc1nsc2c(=O)n(CC3CCCCC3Cl)cc(Cl)c12 (racemic) [Example I-172],100%,100%,100%,100%,100%,100%,,,,,,,,herbicidal effect VIOTR (Viola tricolor [6]; [12]): 100%; herbicidal effect AMARE (Amaranthus retroflexus [7]; [12]): 100%; herbicidal effect SETVI (Setaria viridis [8]; [12]): 80%; herbicidal effect ABUTH (Abutilon theophrasti): 100%
Nc1nsc2c(=O)n(CC3CCCCC3)c(COC3CCCCO3)cc12 (stereo not drawn) [Example I-038],,,,,,,,,,,,,,nematicidal activity (gall formation) (Meloidogyne incognita): 90%
CCC(=O)OCC1Cc2c(N)nsc2C(=O)N1CC1CCCCC1 (stereo not drawn) [Example I-039],,100%,100%,100%,,,,,,,,,,herbicidal effect VIOTR (Viola tricolor [6]; [12]): 100%; herbicidal effect AMARE (Amaranthus retroflexus [7]; [12]): 100%; herbicidal effect SETVI (Setaria viridis [8]; [12]): 100%; herbicidal effect ABUTH (Abutilon theophrasti): 100%
CCC(=O)N(C(=O)CC)c1nsc2c(=O)n(CC3CCCCC3)c(COC3CCCCO3)cc12 (stereo not drawn) [Example I-042],,,,,,,,,,,,,,nematicidal activity (gall formation) (Meloidogyne incognita): 90%; herbicidal effect VIOTR (Viola tricolor [6]; [13]): 100%; herbicidal effect AMARE (Amaranthus retroflexus [7]; [13]): 100%; herbicidal effect SETVI (Setaria viridis [8]; [13]): 90%
CCC(=O)N(C(=O)CC)c1nsc2c(=O)n(CC3CCCCC3)c(CO)cc12 [Example I-049],80%,90%,100%,100%,100%,80%,,,,,,,,nematicidal activity (gall formation) (Meloidogyne incognita): 90%; herbicidal effect VIOTR (Viola tricolor [6]; [13]): 100%; herbicidal effect AMARE (Amaranthus retroflexus [7]; [13]): 90%; herbicidal effect SETVI (Setaria viridis [8]; [13]): 100%
CC(C)Cc1cc2c(N)nsc2c(=O)n1CC1CCCCC1 [Example I-050],,,,,,,,,,,,,,nematicidal activity (gall formation) (Meloidogyne incognita): 90%
Nc1nsc2c(=O)n(CC3CCCCC3)cc(Cl)c12 [Example I-064],100%,100%,100%,100%,100%,100%,100%,100%,100%,100%,100%,100%,100%,
CCC(=O)Nc1nsc2c(=O)n(CC3CCCCC3)cc(Br)c12 [Example I-078],100%,100%,100%,100%,100%,100%,,,,,,,,mortality (Nezara viridula): 90%; herbicidal effect VIOTR (Viola tricolor [6]; [13]): 80%; herbicidal effect AMARE (Amaranthus retroflexus [7]; [13]): 100%; herbicidal effect SETVI (Setaria viridis [8]; [13]): 100%
CCC(=O)Nc1nsc2c(=O)n(CC3CCCCC3)cc(Cl)c12 [Example I-083],100%,100%,100%,100%,100%,100%,,,,,,,,herbicidal effect VIOTR (Viola tricolor [6]; [12]): 100%; herbicidal effect AMARE (Amaranthus retroflexus [7]; [12]): 100%; herbicidal effect SETVI (Setaria viridis [8]; [12]): 100%; herbicidal effect ABUTH (Abutilon theophrasti): 80%
CC(=O)Nc1nsc2c(=O)n(CC3CCCCC3)cc(Br)c12 [Example I-102],,100%,100%,100%,,,,,,,,,,mortality (Nezara viridula): 90%; herbicidal effect VIOTR (Viola tricolor [6]; [13]): 100%; herbicidal effect AMARE (Amaranthus retroflexus [7]; [13]): 100%; herbicidal effect SETVI (Setaria viridis [8]; [13]): 100%
O=C(Nc1nsc2c(=O)n(CC3CCCCC3)cc(F)c12)C(F)(F)C(F)(F)F [Example I-127],100%,100%,100%,100%,100%,100%,100%,100%,100%,100%,100%,100%,100%,
CCC(=O)Nc1nsc2c(=O)n(CC3CCCCC3)cc(F)c12 [Example I-128],100%,100%,100%,100%,100%,100%,100%,100%,100%,100%,100%,100%,100%,
Nc1nsc2c(=O)n(Cc3cc(F)c(F)cc3F)cc(Cl)c12 [Example I-136],90%,100%,100%,100%,100%,100%,100%,100%,100%,90%,100%,100%,100%,
Nc1nsc2c(=O)n(Cc3cc(F)c(F)cc3F)cc(F)c12 [Example I-163],100%,100%,100%,100%,100%,100%,,,,,,,,herbicidal effect VIOTR (Viola tricolor [6]; [12]): 90%; herbicidal effect AMARE (Amaranthus retroflexus [7]; [12]): 100%; herbicidal effect SETVI (Setaria viridis [8]; [12]): 90%; herbicidal effect ABUTH (Abutilon theophrasti): 90%
O=C(Nc1nsc2c(=O)n(Cc3cc(F)c(F)cc3F)cc(F)c12)C(F)F [Example I-165],100%,100%,100%,100%,100%,100%,100%,100%,100%,90%,100%,80%,100%,
